In patent US10266497B2 (ABIDE THERAPEUTICS, INC., priority 2017, dated 2019):

Key:
[1] = target: T1, MAGL (Homo sapiens, UniProt Q99685); test: In vitro competitive activity-based protein profiling, MAGL, human; conditions: read-out: MAGL % inh. 1 μM (human)
T1 sequence (Q99685 1-303): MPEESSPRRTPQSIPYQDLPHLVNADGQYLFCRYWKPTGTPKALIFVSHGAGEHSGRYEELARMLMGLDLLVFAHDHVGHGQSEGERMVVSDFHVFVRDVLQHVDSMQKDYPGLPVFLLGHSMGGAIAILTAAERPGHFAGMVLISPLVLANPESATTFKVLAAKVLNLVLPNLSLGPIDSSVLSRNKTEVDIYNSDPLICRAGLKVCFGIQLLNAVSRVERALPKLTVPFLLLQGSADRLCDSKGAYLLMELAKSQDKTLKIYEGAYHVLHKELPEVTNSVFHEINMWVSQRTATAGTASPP

[2] = target: T2, FAAH (Homo sapiens, UniProt O00519); test: In vitro competitive activity-based protein profiling, FAAH, human; conditions: read-out: FAAH % inh. 1 μM (human)
T2 sequence (O00519 1-579): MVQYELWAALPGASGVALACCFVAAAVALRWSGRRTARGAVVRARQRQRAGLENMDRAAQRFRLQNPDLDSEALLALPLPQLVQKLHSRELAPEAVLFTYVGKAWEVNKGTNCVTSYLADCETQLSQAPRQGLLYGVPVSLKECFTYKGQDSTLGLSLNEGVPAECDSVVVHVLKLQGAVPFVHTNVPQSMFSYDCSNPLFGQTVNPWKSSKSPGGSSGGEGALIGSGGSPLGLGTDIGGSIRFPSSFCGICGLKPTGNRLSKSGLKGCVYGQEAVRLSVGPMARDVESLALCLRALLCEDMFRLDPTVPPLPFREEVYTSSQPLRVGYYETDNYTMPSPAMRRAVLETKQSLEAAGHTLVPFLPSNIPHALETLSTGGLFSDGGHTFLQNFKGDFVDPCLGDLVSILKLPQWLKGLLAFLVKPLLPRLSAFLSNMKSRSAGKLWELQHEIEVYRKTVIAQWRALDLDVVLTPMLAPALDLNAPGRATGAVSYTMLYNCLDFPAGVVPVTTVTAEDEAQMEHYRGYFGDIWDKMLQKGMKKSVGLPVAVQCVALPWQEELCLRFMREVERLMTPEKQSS
Description: (§1) Biological Evaluation In Vitro Competitive Activity-Based Protein Profiling.
(§2) Proteomes (mouse brain membrane fraction for mouse assays; human prefrontal cortex membrane fractions for human assays) (50 mL, 1.0 mg/mL total protein concentration) were preincubated with varying concentrations of inhibitors at 37° C. After 30 min, FP-Rh (1.0 mL, 50 mM in DMSO) was added and the mixture was incubated for another 30 min at 37° C. Reactions were quenched with SDS loading buffer (15 μL—4λ) and run on SDS-PAGE.

[3] = target: T3, FAAH (Mus musculus, UniProt O08914); test: In vitro competitive activity-based protein profiling, FAAH, mouse; conditions: read-out: FAAH % inh. 1 μM (mouse)
T3 sequence (O08914 1-579): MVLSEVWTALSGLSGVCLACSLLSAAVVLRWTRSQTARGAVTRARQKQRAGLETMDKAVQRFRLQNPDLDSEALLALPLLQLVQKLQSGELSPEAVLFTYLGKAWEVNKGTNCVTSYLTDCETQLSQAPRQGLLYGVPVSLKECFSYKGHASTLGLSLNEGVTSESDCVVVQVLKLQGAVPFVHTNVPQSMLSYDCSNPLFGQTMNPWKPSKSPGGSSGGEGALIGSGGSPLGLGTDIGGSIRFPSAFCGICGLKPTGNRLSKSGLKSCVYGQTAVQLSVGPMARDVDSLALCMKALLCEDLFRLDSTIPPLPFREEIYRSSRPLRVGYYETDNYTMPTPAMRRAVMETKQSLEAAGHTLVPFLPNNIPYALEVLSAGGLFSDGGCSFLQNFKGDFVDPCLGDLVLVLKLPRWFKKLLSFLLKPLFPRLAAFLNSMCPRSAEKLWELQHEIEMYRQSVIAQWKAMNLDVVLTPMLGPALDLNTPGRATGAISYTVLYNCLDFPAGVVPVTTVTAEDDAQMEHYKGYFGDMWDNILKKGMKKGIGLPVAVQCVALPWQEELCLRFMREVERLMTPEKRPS
Description: as §1, §2

[4] = target: T4, MAGL (Mus musculus, UniProt O35678); test: In vitro competitive activity-based protein profiling, MAGL, mouse; conditions: read-out: MAGL % inh. 1 μM (mouse)
T4 sequence (O35678 1-303): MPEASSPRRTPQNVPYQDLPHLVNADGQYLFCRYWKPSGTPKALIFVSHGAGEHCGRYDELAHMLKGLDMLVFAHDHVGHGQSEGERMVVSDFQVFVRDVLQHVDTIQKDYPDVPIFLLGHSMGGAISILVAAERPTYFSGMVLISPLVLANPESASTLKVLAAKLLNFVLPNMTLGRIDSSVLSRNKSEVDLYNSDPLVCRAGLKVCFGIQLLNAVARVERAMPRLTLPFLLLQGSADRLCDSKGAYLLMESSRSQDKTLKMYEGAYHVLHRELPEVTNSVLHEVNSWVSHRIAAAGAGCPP

SMILES	inhibition at 1 µM [1] [%]	inhibition at 1 µM [2] [%]	inhibition at 1 µM [3] [%]	inhibition at 1 µM [4] [%]
O=C(O)c1ccn(C(=O)N2CCC3(CCCN3Cc3ccc(C(F)(F)F)cc3-c3nnn[nH]3)CC2)n1 [Example 126, 1-(1-(2-(1H-tetrazol-5-yl)-4-(trifluoromethyl)benzyl)-1,8-diazaspiro[4.5]decane-8-carbonyl)-1H-pyrazole-3-carboxylic acid]	25 to 50	0 to 25	0 to 25	0 to 25
NC(=O)c1ccn(C(=O)N2CCN(Cc3ccc(N4CCOCC4)cc3Cl)CC2)n1 [Example 165, 1-(4-(2-chloro-4-morpholinobenzyl)piperazine-1-carbonyl)-1H-pyrazole-3-carboxamide]	> 75	> 75	50 to 75	> 75
C[C@@H]1CC[C@H](C)N1c1cc(C(F)(F)F)ccc1CN1CCN(C(=O)n2ccc(C(=O)O)n2)CC1 [Example 94, 1-(4-(2-((2R,5S)-2,5-dimethylpyrrolidin-1-yl)-4-(trifluoromethyl)benzyl)piperazine-1-carbonyl)-1H-pyrazole-3-carboxylic acid]	> 75	0 to 25	0 to 25	> 75
O=C(O)c1ccn(C(=O)N2C[C@H]3C[C@@H](OCc4ccccc4Cl)C[C@H]3C2)n1 [Example 41, 1-(cis-5-((2-chlorobenzyl)oxy)octahydrocyclo-penta[c]pyrrole-2-carbonyl)-1H-pyrazole-3-carboxylic acid]	> 75	> 75	0 to 25	0 to 25
O=C(O)c1ccn(C(=O)N2C[C@H]3C[C@H](OCc4ccccc4Cl)C[C@H]3C2)n1 [Example 15, 1-(trans-5-((2-Chlorobenzyl)oxy)octahydrocyclopenta[c]pyrrole-2-carbonyl)-1H-pyrazole-3-carboxylic Acid]	–	> 75	25 to 50	–
CN(Cc1ccccc1Cl)[C@H]1C[C@@H]2CN(C(=O)n3ccc(C(=O)O)n3)C[C@@H]2C1 [Example 184, 1-(trans-5-((2-chlorobenzyl) (methyl)amino)octa-hydrocyclopenta[c]pyrrole-2-carbonyl)-1H-pyrazole-3-carboxylic]	–	–	25 to 50	0 to 25
O=C(O)c1ccn(C(=O)N2CC3CN(Cc4ccc(Cl)cc4)CC3C2)n1 (stereo not drawn) [Example 183, 1-(5-(4-chlorobenzyl)octa-hydropyrrolo[3,4-c]pyrrole-2-carbonyl)-1H-pyrazole-3-carboxylic acid]	–	–	25 to 50	25 to 50
O=C(O)c1ccn(C(=O)N2CC3CN(Cc4ccc(C(F)(F)F)cc4)CC3C2)n1 (stereo not drawn) [Example 96, 1-(5-(4-(trifluoromethyl)benzyl)octahydro-pyrrolo[3,4-c]pyrrole-2-carbonyl)-1H-pyrazole-3-carboxylic acid]	–	–	25 to 50	> 75
NC(=O)c1ccn(C(=O)N2CC3CN(Cc4ccc(N5CCOCC5)cc4C(F)(F)F)CC3C2)n1 (stereo not drawn) [Example 17, 1-(5-(4-Morpholino-2-(trifluoromethyl)benzyl)octahydropyrrolo[3,4-c]pyrrole-2-carbonyl)-1H-pyrazole-3-carboxamide]	–	–	> 75	> 75
O=C(O)c1ccn(C(=O)N2CCC(Oc3cccc(Cl)c3N3CCCC3)CC2)n1 [Example 13, 1-(4-(3-Chloro-2-(pyrrolidin-1-yl)phenoxy)piperidine-1-carbonyl)-1H-pyrazole-3-carboxylic Acid]	–	–	0 to 25	> 75
C[C@@H]1CC[C@H](C)N1c1cc(C(F)(F)F)ccc1CN1CCCC12CCN(C(=O)n1ccc(C(=O)O)n1)CC2 [Example 80, 1-(1-(2-((2R,5S)-2,5-dimethylpyrrolidin-1-yl)-4-(trifluoromethyl)benzyl)-1,8-diazaspiro[4.5]decane-8-carbonyl)-1H-pyrazole-3-carboxylic acid]	–	0 to 25	0 to 25	–
C[C@@H]1CC[C@H](C)N1c1cc(C(F)(F)F)ccc1CN(C)C1(C)CCN(C(=O)n2ccc(C(=O)O)n2)CC1 [Example 160, 1-(4-((2-((2R,5S)-2,5-dimethylpyrrolidin-1-yl)-4-(trifluoromethyl)benzyl)(methyl)amino)-4-methylpiperidine-1-carbonyl)-1H-pyrazole-3-carboxylic acid]	–	0 to 25	0 to 25	–
O=C(O)c1ccn(C(=O)N2CCN(Cc3cccc(Oc4ccccc4)c3)CC2)n1 [Example 2, 1-(4-(3-phenoxybenzyl)piperazine-1-carbonyl)-1H-pyrazole-3-carboxylic Acid]	–	–	25 to 50	> 75

Results, then the compound that gave them:

inhibition at 1 µM [1] [%]	inhibition at 1 µM [2] [%]	inhibition at 1 µM [3] [%]	inhibition at 1 µM [4] [%]	SMILES
–	–	> 75	> 75	NC(=O)c1ccn(C(=O)N2CC3CN(Cc4cccc(C(F)(F)F)c4)CC3C2)n1 (stereo not drawn) [Example 208, 1-(5-(3-(trifluoromethyl)benzyl)octahydro-pyrrolo[3,4-c]pyrrole-2-carbonyl)-1H-pyrazole-3-carboxamide]
–	–	> 75	> 75	CN(Cc1ccc(C(F)(F)F)cc1)[C@@H]1C[C@@H]2CN(C(=O)n3ccc(C(N)=O)n3)C[C@@H]2C1 [Example 205, 1-(cis-5-(methyl(4-(trifluoromethyl)benzyl)amino)octa-hydrocyclopenta[c]pyrrole-2-carbonyl)-1H-pyrazole-3-carboxamide]
–	–	> 75	> 75	NC(=O)c1ccn(C(=O)N2CC3CN(Cc4cc(Cl)ccc4Cl)CC3C2)n1 (stereo not drawn) [Example 202, 1-(5-(2,5-dichlorobenzyl)octa-hydropyrrolo[3,4-c]pyrrole-2-carbonyl)-1H-pyrazole-3-carboxamide]
–	–	> 75	> 75	NC(=O)c1ccn(C(=O)N2CCN(Cc3cccc(Oc4ccccc4)c3)CC2)n1 [Example 198, 1-(4-(3-phenoxybenzyl)pi-perazine-1-carbonyl)-1H-pyrazole-3-carboxamide]
–	–	> 75	> 75	NC(=O)c1ccn(C(=O)N2CC3CN(Cc4cc(Cl)cc(C(F)(F)F)c4)CC3C2)n1 (stereo not drawn) [Example 201, 1-(5-(3-chloro-5-(trifluoromethyl)benzyl)octahydro-pyrrolo[3,4-c]pyrrole-2-carbonyl)-1H-pyrazole-3-carboxamide]
–	–	> 75	> 75	CN(Cc1ccccc1Cl)[C@@H]1C[C@@H]2CN(C(=O)n3ccc(C(N)=O)n3)C[C@@H]2C1 [Example 206]
–	–	> 75	> 75	CN(Cc1ccccc1C(F)(F)F)[C@@H]1C[C@@H]2CN(C(=O)n3ccc(C(N)=O)n3)C[C@@H]2C1 [Example 204, 1-(cis-5-(methyl(2-(trifluoromethyl)benzyl)amino)octa-hydrocyclopenta[c]pyrrole-2-carbonyl)-1H-pyrazole-3-carboxamide]
